In patent publication US20130005568A1, “SAFENED HERBICIDAL MIXTURES” (E.I. DU PONT DE NEMOURS AND COMPANY, priority 2011, published 2013):

Key:
pigweed = assay: Test E: postemergence plant response rating; assay type: in vivo, Amaranthus retroflexus L.; conditions: Compound 1 alone 125 g ai/ha; Test E plants
Excerpt: (§1) For all of the following biological tests, plant response ratings were based on a 0-100 scale where zero is growth equivalent to that of untreated plants (no plant response) and 100 represents no additional growth occurring after herbicide treatment.
(§2) Herbicide mixtures were formulated, dissolved/dispersed in water containing 0.25% non-ionic surfactant, sprayed postemergence to the crops: winter wheat (Triticum aestivum L.), spring wheat (Triticum aestivum L.), winter barley (Hordeum vulgare L.) and spring barley (Hordeum vulgare L.), and the weeds: blackgrass (Alopecurus myosuroides Huds.), lambsquarters (Chenopodium album L.) and pigweed (Amaranthus retroflexus L.). Treated plants were grown under greenhouse conditions for two weeks before visual evaluations of plant responses were recorded.

lambsquarters = assay: Test E: postemergence plant response rating; assay type: in vivo, Chenopodium album L.; conditions: Compound 1 alone 125 g ai/ha; Test E plants
Excerpt: as §1, §2

Tall fescue = assay: Test G: turf grass and weed postemergence plant response rating; assay type: in vivo, Festuca arundinacea Shreib.; conditions: Compound 1 alone 125 g ai/ha; Test G plants
Excerpt: as §1
(§3) Plants of the turf grass species: zoysia (Zoysia japonica Steud.), bermudagrass (Cynodon dactylon (L.) Pers.), tall fescue (Festuca arundinacea Shreib.), creeping bentgrass (Agrostis stoonoifera L.), perennial ryegrass (Lolium perenne L.) and hard fescue (Festuca species) were grown under greenhouse conditions for four months. Plants were clipped as needed to plant heights of 5-10 cm. Weeds typically found in turf: annual bluegrass (Poa annua L.), common chickweed (Stellaria media (L.) Vill.), large crabgrass (Digitaria sanguinales (L.) Scop.), dandelion (Taraxacum officinale Weber in Wiggers), goosegrass (Eleusine indica (L.) Gaertn.), henbit (Lamium amplexicaule L.), venice mallow (Hibiscus trionium L.) and purple nutsedge (Cyperus rotundus L.) were also grown under greenhouse conditions so that plants were 5-20 cm tall when they were treated. Herbicide mixtures were formulated, dissolved/dispersed in water containing 0.25% non-ionic surfactant, and sprayed postemergence to these turf grasses and weeds. Treated plants were grown under greenhouse conditions for three weeks before visual evaluations of plant responses were recorded.

blackgrass = assay: Test F: preemergence plant response rating; assay type: in vivo, Alopecurus myosuroides Huds; conditions: Compound 1 alone 125 g ai/ha; Test F plants
Excerpt: as §1
Herbicide mixtures were formulated, dissolved/dispersed in water, and sprayed preemergence to the crops: winter wheat (Triticum aestivum L.) and winter barley (Hordeum vulgare L.), and the weed: blackgrass (Alopecurus myosuroides Huds). Treated plants were grown under greenhouse conditions for three weeks before visual evaluations of plant responses were recorded.

Dandelion = assay: Test G: turf grass and weed postemergence plant response rating; assay type: in vivo, Taraxacum officinale Weber in Wiggers; conditions: Compound 1 alone 125 g ai/ha; Test G plants
Excerpt: as §1, §3

Annual bluegrass = assay: as above; assay type: in vivo, Poa annua L.; conditions: Compound 1 alone 125 g ai/ha; Test G plants
Excerpt: as §1, §3

Bermudagrass = assay: as above; assay type: in vivo, Cynodon dactylon (L.) Pers.; conditions: Compound 1 alone 125 g ai/ha; Test G plants
Excerpt: as §1
Plants of the turf grass species: zoysia (Zoysia japonica Steud.), bermudagrass (Cynodon dactylon (L.) Pers.), tall fescue (Festuca arundinacea Shreib.), creeping bentgrass (Agrostis stoonoifera L.), perennial ryegrass (Lolium perenne L.) and hard fescue (Festuca species) were grown under greenhouse conditions for four months. Plants were clipped as needed to plant heights of 5-10 cm. […] Herbicide mixtures were formulated, dissolved/dispersed in water containing 0.25% non-ionic surfactant, and sprayed postemergence to these turf grasses and weeds. Treated plants were grown under greenhouse conditions for three weeks before visual evaluations of plant responses were recorded.

Goosegrass = assay: as above; assay type: in vivo, Eleusine indica (L.) Gaertn.; conditions: Compound 1 alone 125 g ai/ha; Test G plants
Excerpt: as §1, §3

Creeping bentgrass = assay: as above; assay type: in vivo, Agrostis stoonoifera L.; conditions: Compound 1 alone 125 g ai/ha; Test G plants
Excerpt: as §1, §3

[1] = test system: Pioneer 39K40 hybrid maize; assay: Test B: visual plant response rating, postemergence herbicides with Compound 1 rate series; assay type: in vivo, Zea mays L. spp. indentata Sturt.; conditions: Compound 1 alone 125 g ai/ha; Test B
Method: as §1
Herbicide mixtures were dissolved/dispersed in a non-phytotoxic liquid carrier and were sprayed postemergence to Pioneer 39K40 hybrid maize (Zea mays L. spp. indentata Sturt.) in the third collar growth stage (extended leaf height was 50-60 cm). Treated plants were grown under greenhouse conditions for two weeks before visual evaluations of plant responses were recorded.

velvetleaf = assay: Test I: postemergence plant response rating; assay type: in vivo, Abutilon theophrasti Medik.; conditions: Compound 1 alone 125 g ai/ha; Test I plants
Excerpt: as §1
Herbicide mixtures were formulated, dissolved/dispersed in water containing 0.25% non-ionic surfactant, and sprayed postemergence to the crop: soybean (Glycine max (L.) Merr.) at the 2-leaf growth stage and to weeds: lambsquarters (Chenopodium album L.) and velvetleaf (Abutilon theophrasti Medik.). Weed species were 5-10 cm tall when treated. Treated plants were grown under greenhouse conditions for two weeks before visual evaluations of plant responses were recorded.

Perennial ryegrass = assay: Test G: turf grass and weed postemergence plant response rating; assay type: in vivo, Lolium perenne L.; conditions: Compound 1 alone 125 g ai/ha; Test G plants
Excerpt: as §1, §3

palisade grass = assay: Test K: pasture grass postemergence plant response rating, field conditions; assay type: in vivo, Brachiaria brizantha (Hochst. ex A. Rich) Stapf; conditions: Compound 1 alone 140 g ai/ha; Test K plants
Excerpt: as §1
Herbicide mixtures were formulated, dissolved/dispersed in water containing 0.25% non-ionic surfactant, and sprayed postemergence to the pasture grasses: Surinam grass (Brachiaria decumbens Stapf), palisade grass (Brachiaria brizantha (Hochst. ex A. Rich) Stapf) and Alexandergrass (Brachiaria plantaginea (Link) A. S. Hitchc.) approximately 10-30 cm tall (extended leaf height). This test was conducted under field conditions. Visual evaluations of plant responses were recorded four weeks after the plants were treated.

Purple nutsedge = assay: Test G: turf grass and weed postemergence plant response rating; assay type: in vivo, Cyperus rotundus L.; conditions: Compound 1 alone 125 g ai/ha; Test G plants
Excerpt: as §1, §3

winter barley = assay: Test E: postemergence plant response rating; assay type: in vivo, Hordeum vulgare L.; conditions: Compound 1 alone 125 g ai/ha; Test E plants
Excerpt: as §1, §2

spring barley = assay: Test E: postemergence plant response rating; assay type: in vivo, Hordeum vulgare L.; conditions: Compound 1 alone 125 g ai/ha; Test E plants
Excerpt: as §1, §2

Measured: injury, Compound 1 alone

Cc1ccccc1S(=O)(=O)NC(N)=O [Compound 1, N-(aminocarbonyl)-2-methylbenzenesulfonamide]
no injury: all assays above
